# Measurements taken from ChEMBL document CHEMBL1201862, “PubChem BioAssay data set” (2004).
#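 Method: 48-hour compound exposure of cells in 96-well plates, five concentrations, linear interpolation of endpoints. GI50 = concentration required for 50% inhibition of growth.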 Calls of active or inactive are those of the source. Rule as the data show it: active = GI50 up to about 1.1 µM and inactive = higher.
# Tests used:
# Experiment in all cases: NCI-60 cell line screen, 48 h
# 786-0 = test system: 786-0
# A549 = test system: A549
# ACHN = test system: ACHN
# CAKI-1 = test system: CAKI-1
# COLO 205 = test system: COLO 205
# DLD-1 = test system: DLD-1
# DMS-114 = test system: DMS-114
# DMS-273 = test system: DMS-273
# EKVX = test system: EKVX
# HCT-116 = test system: HCT-116
# HCT-15 = test system: HCT-15
# HOP-92 = test system: HOP-92
# HT-29 = test system: HT-29
# IGROV-1 = test system: IGROV-1
# K562 = test system: K562
# KM-20L2 = test system: KM-20L2
# KM12 = test system: KM12
# LXFL 529 = test system: LXFL 529
# M14 = test system: M14
# M19-MEL = test system: M19-MEL
# MOLT-4 = test system: MOLT-4
# Malme-3M = test system: Malme-3M
# NCI-H226 = test system: NCI-H226
# NCI-H23 = test system: NCI-H23
# NCI-H460 = test system: NCI-H460
# NCI-H522 = test system: NCI-H522
# OVCAR-3 = test system: OVCAR-3
# OVCAR-4 = test system: OVCAR-4
# OVCAR-5 = test system: OVCAR-5
# OVCAR-8 = test system: OVCAR-8
# RPMI-8226 = test system: RPMI-8226
# RXF 393 = test system: RXF 393
# RXF 631 = test system: RXF 631
# SF-295 = test system: SF-295
# SF-539 = test system: SF-539
# SK-MEL-28 = test system: SK-MEL-28
# SK-MEL-2 = test system: SK-MEL-2
# SK-MEL-5 = test system: SK-MEL-5
# SK-OV-3 = test system: SK-OV-3
# SN12C = test system: SN12C
# SNB-19 = test system: SNB-19
# SNB-75 = test system: SNB-75
# SNB-78 = test system: SNB-78
# SR = test system: SR
# SW-620 = test system: SW-620
# TK-10 = test system: TK-10
# U-251 = test system: U-251
# UACC-257 = test system: UACC-257
# UACC-62 = test system: UACC-62
# UO-31 = test system: UO-31
# A498 = test system: A498
# CCRF-CEM = test system: CCRF-CEM
# HL-60 = test system: HL-60
# HOP-62 = test system: HOP-62
# HCC 2998 = test system: HCC 2998
# HOP-18 = test system: HOP-18
# LOX IMVI = test system: LOX IMVI
# SF-268 = test system: SF-268
compound,measurement,setting,value
CC1(C)O[C@H]2[C@H](O)C[C@](O)(CO)C[C@H]2O1,GI50,786-0,> 100 µM (inactive)
same,GI50,A549,> 100 µM (inactive)
same,GI50,ACHN,> 100 µM (inactive)
same,GI50,CAKI-1,> 100 µM (inactive)
same,GI50,COLO 205,> 100 µM (inactive)
same,GI50,DLD-1,> 100 µM (inactive)
same,GI50,DMS-114,> 100 µM (inactive)
same,GI50,DMS-273,> 100 µM (inactive)
same,GI50,EKVX,> 100 µM (inactive)
same,GI50,HCT-116,> 100 µM (inactive)
same,GI50,HCT-15,> 100 µM
same,GI50,HOP-92,> 100 µM (inactive)
same,GI50,HT-29,> 100 µM (inactive)
same,GI50,IGROV-1,> 100 µM (inactive)
same,GI50,K562,> 100 µM (inactive)
same,GI50,KM-20L2,> 100 µM (inactive)
same,GI50,KM12,> 100 µM (inactive)
same,GI50,LXFL 529,> 100 µM (inactive)
same,GI50,M14,> 100 µM (inactive)
same,GI50,M19-MEL,> 100 µM (inactive)
same,GI50,MOLT-4,> 100 µM (inactive)
same,GI50,Malme-3M,> 100 µM (inactive)
same,GI50,NCI-H226,> 100 µM (inactive)
same,GI50,NCI-H23,> 100 µM (inactive)
same,GI50,NCI-H460,> 100 µM (inactive)
same,GI50,NCI-H522,> 100 µM (inactive)
same,GI50,OVCAR-3,> 100 µM (inactive)
same,GI50,OVCAR-4,> 100 µM (inactive)
same,GI50,OVCAR-5,> 100 µM (inactive)
same,GI50,OVCAR-8,> 100 µM (inactive)
same,GI50,RPMI-8226,> 100 µM (inactive)
same,GI50,RXF 393,> 100 µM (inactive)
same,GI50,RXF 631,> 100 µM (inactive)
same,GI50,SF-295,> 100 µM (inactive)
same,GI50,SF-539,> 100 µM (inactive)
same,GI50,SK-MEL-28,> 100 µM (inactive)
same,GI50,SK-MEL-2,> 100 µM (inactive)
same,GI50,SK-MEL-5,> 100 µM (inactive)
same,GI50,SK-OV-3,> 100 µM (inactive)
same,GI50,SN12C,> 100 µM (inactive)
same,GI50,SNB-19,> 100 µM (inactive)
same,GI50,SNB-75,48.2 µM (inactive)
same,GI50,SNB-78,> 100 µM (inactive)
same,GI50,SR,> 100 µM (inactive)
same,GI50,SW-620,> 100 µM (inactive)
same,GI50,TK-10,> 100 µM (inactive)
same,GI50,U-251,> 100 µM (inactive)
same,GI50,UACC-257,> 100 µM (inactive)
same,GI50,UACC-62,> 100 µM (inactive)
same,GI50,UO-31,> 100 µM (inactive)
CCNC(CCCC(NCC)P(=O)(O)O)P(=O)(O)O (centres undefined),GI50,A498,> 100 µM (inactive)
same,GI50,A549,> 100 µM (inactive)
same,GI50,CCRF-CEM,> 100 µM (inactive)
same,GI50,HCT-116,> 100 µM (inactive)
same,GI50,HL-60,> 100 µM (inactive)
same,GI50,HOP-62,> 100 µM (inactive)
same,GI50,HOP-92,> 100 µM (inactive)
same,GI50,HT-29,> 100 µM (inactive)
same,GI50,IGROV-1,> 100 µM (inactive)
same,GI50,KM-20L2,> 100 µM (inactive)
same,GI50,KM12,> 100 µM (inactive)
same,GI50,M14,> 100 µM (inactive)
same,GI50,M19-MEL,> 100 µM (inactive)
same,GI50,MOLT-4,> 100 µM (inactive)
same,GI50,NCI-H226,> 100 µM (inactive)
same,GI50,NCI-H23,> 100 µM (inactive)
same,GI50,NCI-H460,> 100 µM (inactive)
same,GI50,NCI-H522,> 100 µM (inactive)
same,GI50,OVCAR-5,> 100 µM (inactive)
same,GI50,OVCAR-8,> 100 µM (inactive)
same,GI50,RXF 393,> 100 µM (inactive)
same,GI50,RXF 631,> 100 µM (inactive)
same,GI50,SF-295,> 100 µM (inactive)
same,GI50,SK-MEL-28,> 100 µM (inactive)
same,GI50,SK-OV-3,> 100 µM (inactive)
same,GI50,SNB-19,> 100 µM (inactive)
same,GI50,SNB-78,> 100 µM (inactive)
same,GI50,SR,> 100 µM (inactive)
same,GI50,TK-10,> 100 µM (inactive)
same,GI50,U-251,> 100 µM (inactive)
same,GI50,UACC-257,> 100 µM (inactive)
same,GI50,UACC-62,> 100 µM (inactive)
same,GI50,UO-31,> 100 µM (inactive)
C=C(C)[C@H](O)C(O)CC(C)[C@@H]1CCC23CC12CCC1[C@@]2(C)CCC(OC(C)=O)C(C)(C)C2CC(OC2OC(COC(C)=O)C(O)C(O)C2O)[C@]13C (some centres undefined),GI50,786-0,7.4 µM (inactive)
same,GI50,A498,7.98 µM (inactive)
same,GI50,A549,6.21 µM (inactive)
same,GI50,ACHN,6.61 µM (inactive)
same,GI50,CAKI-1,6.22 µM (inactive)
same,GI50,CCRF-CEM,2.62 µM (inactive)
same,GI50,COLO 205,6.61 µM (inactive)
same,GI50,DLD-1,5.52 µM (inactive)
same,GI50,DMS-114,4.91 µM (inactive)
same,GI50,DMS-273,5.66 µM (inactive)
same,GI50,EKVX,6.67 µM (inactive)
same,GI50,HCC 2998,6.35 µM (inactive)
same,GI50,HCT-116,3.8 µM (inactive)
same,GI50,HCT-15,4.86 µM
same,GI50,HL-60,1.62 µM (inactive)
same,GI50,HOP-18,8.85 µM (inactive)
same,GI50,HOP-62,6.92 µM (inactive)
same,GI50,HOP-92,5.37 µM (inactive)
same,GI50,HT-29,3.06 µM (inactive)
same,GI50,IGROV-1,3.78 µM (inactive)
same,GI50,K562,2.42 µM (inactive)
same,GI50,KM-20L2,4.53 µM (inactive)
same,GI50,KM12,5.47 µM (inactive)
same,GI50,LOX IMVI,4.86 µM (inactive)
same,GI50,LXFL 529,5.32 µM (inactive)
same,GI50,M14,3.41 µM (inactive)
same,GI50,M19-MEL,5.24 µM (inactive)
same,GI50,MOLT-4,2.34 µM (inactive)
same,GI50,Malme-3M,7.91 µM (inactive)
same,GI50,NCI-H226,5.45 µM (inactive)
same,GI50,NCI-H23,7.59 µM (inactive)
same,GI50,NCI-H460,4.78 µM (inactive)
same,GI50,NCI-H522,4.35 µM (inactive)
same,GI50,OVCAR-3,5.83 µM (inactive)
same,GI50,OVCAR-4,7.71 µM (inactive)
same,GI50,OVCAR-5,7.69 µM (inactive)
same,GI50,OVCAR-8,6.47 µM (inactive)
same,GI50,RPMI-8226,1.5 µM (inactive)
same,GI50,RXF 393,2.9 µM (inactive)
same,GI50,RXF 631,6.12 µM (inactive)
same,GI50,SF-268,5.31 µM (inactive)
same,GI50,SF-295,6.59 µM (inactive)
same,GI50,SF-539,6.67 µM (inactive)
same,GI50,SK-MEL-28,7.19 µM (inactive)
same,GI50,SK-MEL-2,8.83 µM (inactive)
same,GI50,SK-OV-3,8 µM (inactive)
same,GI50,SN12C,6.75 µM (inactive)
same,GI50,SNB-19,5.9 µM (inactive)
same,GI50,SNB-75,3.4 µM (inactive)
same,GI50,SNB-78,7.16 µM (inactive)
same,GI50,SW-620,6.14 µM (inactive)
same,GI50,TK-10,6.55 µM (inactive)
same,GI50,U-251,4.74 µM (inactive)
same,GI50,UACC-257,6.01 µM (inactive)
same,GI50,UACC-62,3.84 µM (inactive)
same,GI50,UO-31,8.18 µM (inactive)
